Results reported in patent publication US8871783B2, “Substituted 2-aza-bicyclo[2.2.1]heptane-3-carboxylic acid (cyano-methyl)-amides inhibitors of cathepsin C” (Boehringer Ingelheim International GmBh, priority 2013, dated 2014).

Target: recombinant human DPPI (Homo sapiens (Human), UniProt P53634)
Assay: Inhibition of Human DPPI (Cathepsin C)
Type: biochemical
Details: substrate Gly-Arg-AMC 50 μM, MES buffer pH 6.0, fluorescence
Description: Inhibition of Human DPPI (Cathepsin C)
Materials: Microtiterplates (Optiplate-384 F) were purchased from PerkinElmer (Prod. No. 6007270). The substrate Gly-Arg-AMC was from Biotrend (Prod.-No. 808756 Custom peptide). Bovine serum albumin (BSA; Prod. No. A3059) and Dithiothreitol (DTT; Prod. No D0632) were from Sigma. TagZyme buffer was from Riedel-de-Haen (Prod.-No. 04269), NaCl was from Merck (Prod.-No. 1.06404.1000) and morpholinoethane sulfonic acid (MES), was from Serva (Prod.-No. 29834). The DPP1 inhibitor Gly-Phe-DMK was purchased from MP Biomedicals (Prod.-No. 03DK00625). The recombinant human DPPI was purchased from Prozymex. All other materials were of highest grade commercially available.
The following buffers were used: MES buffer: 25 mM MES, 50 mM NaCl, 5 mM DTT, adjusted to pH 6.0, containing 0.1% BSA; TAGZyme Buffer: 20 mM NaH2PO4, 150 mM NaCl adjusted to pH 6.0 with HCl
Assay conditions: The recombinant human DPPI was diluted in TAGZyme buffer to 1 U/ml (38.1 μg/ml, respectively), and then activated by mixing in a 1:2 ratio with a Cysteamine aqueous solution (2 mM) and incubating for 5 min at room temperature.
Five uL test compound (final concentration 0.1 nM to 100 μM) in aqua bidest (containing 4% DMSO, final DMSO concentration 1%) were mixed with 10 μL of DPPI in MES buffer (final concentration 0.0125 ng/μL) and incubated for 10 min. Then, 5 μL of substrate in MES buffer (final concentration 50 μM) were added. The microtiter plates were then incubated at room temperature for 30 min. Then, the reaction was stopped by adding 10 μL of Gly-Phe-DMK in MES-buffer (final concentration 1 μM). The fluorescence in the wells was determined using a Molecular Devices SpectraMax M5 Fluorescence Reader (Ex 360 nm, Em 460 nm) or an Envision Fluorescence Reader (Ex 355 nm, Em 460 nm).
Each assay microtiter plate contained wells with vehicle controls (1% DMSO in bidest+0.075% BSA) as reference for non-inhibited enzyme activity (100% Ctl; high values) and wells with inhibitor (Gly-Phe-DMK, in bidest+1% DMSO+0.075% BSA, final concentration 1 μM) as controls for background fluorescence (0% Ctl; low values).
The analysis of the data was performed by calculating the percentage of fluorescence in the presence of test compound in comparison to the fluorescence of the vehicle control after subtracting the background fluorescence using the following formula: (RFU(sample)−RFU(background))*100/(RFU(control)−RFU(background)) […]

Sequence of recombinant human DPPI (P53634 231-394): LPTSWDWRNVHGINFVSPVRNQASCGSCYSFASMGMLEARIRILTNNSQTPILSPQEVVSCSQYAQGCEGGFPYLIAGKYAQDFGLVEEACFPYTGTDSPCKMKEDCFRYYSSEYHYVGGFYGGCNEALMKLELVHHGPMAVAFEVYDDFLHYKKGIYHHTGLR
Sequence of recombinant human DPPI (P53634 395-463): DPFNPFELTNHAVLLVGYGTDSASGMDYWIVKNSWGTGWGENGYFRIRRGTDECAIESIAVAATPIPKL
Sequence of recombinant human DPPI (P53634 25-134): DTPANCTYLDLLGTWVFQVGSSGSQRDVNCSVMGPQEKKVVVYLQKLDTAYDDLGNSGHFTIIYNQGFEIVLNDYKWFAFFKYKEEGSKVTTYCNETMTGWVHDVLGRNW

Compound | Ki
N#Cc1ccc(-c2ccc(C[C@@H](C#N)NC(=O)[C@H]3N[C@@H]4CC[C@H]3C4)s2)cc1F [Example 1] | 13.7 nM
CS(=O)(=O)c1ccc(-c2ccc(C[C@@H](C#N)NC(=O)[C@H]3N[C@@H]4CC[C@H]3C4)s2)cc1 [Example 2] | 17.3 nM
CN1C(=O)Cc2ccc(-c3ccc(C[C@@H](C#N)NC(=O)[C@H]4N[C@@H]5CC[C@H]4C5)s3)cc21 [Example 3] | 3.2 nM
CN1C(=O)C(=O)c2ccc(-c3ccc(C[C@@H](C#N)NC(=O)[C@H]4N[C@@H]5CC[C@H]4C5)s3)cc21 [Example 4] | 2.1 nM
CN1C(=O)Cc2ccc(-c3ccc(C[C@@H](C#N)NC(=O)[C@H]4N[C@@H]5CC[C@H]4C5)o3)cc21 [Example 5] | 176 nM
N#CC(Cc1cc2cc(Br)ccc2o1)NC(=O)[C@H]1N[C@@H]2CC[C@H]1C2 (stereo partly drawn) [Example 6] | 64.1 nM
N#Cc1ccc(-c2ccc3oc(CC(C#N)NC(=O)[C@H]4N[C@@H]5CC[C@H]4C5)cc3c2)cc1F (stereo partly drawn) [Example 7] | 39.3 nM
CN1C(=O)Cc2ccc(-c3ccc4oc(CC(C#N)NC(=O)[C@H]5N[C@@H]6CC[C@H]5C6)cc4c3)cc21 (stereo partly drawn) [Example 8] | 104 nM
N#CC(Cc1cc2cc(-c3ccccc3)ccc2o1)NC(=O)[C@H]1N[C@@H]2CC[C@H]1C2 (stereo partly drawn) [Example 9] | 62 nM
N#CC(Cc1cc2cc(Br)ccc2s1)NC(=O)[C@H]1N[C@@H]2CC[C@H]1C2 (stereo partly drawn) [Example 10] | 35.8 nM
N#CC(Cc1cc2cc(-c3ccccc3)ccc2s1)NC(=O)[C@H]1N[C@@H]2CC[C@H]1C2 (stereo partly drawn) [Example 11] | 72.8 nM
CN1C(=O)Cc2ccc(-c3cnc(CC(C#N)NC(=O)[C@H]4N[C@@H]5CC[C@H]4C5)s3)cc21 (stereo partly drawn) [Example 12] | 14.9 nM
CN1C(=O)Cc2ccc(-c3csc(CC(C#N)NC(=O)[C@H]4N[C@@H]5CC[C@H]4C5)c3F)cc21 (stereo partly drawn) [Example 13] | 61.7 nM
CC(=O)c1ccc(-c2ccc(C[C@@H](C#N)NC(=O)[C@H]3N[C@@H]4CC[C@H]3C4)s2)s1 [Example 14] | 13.4 nM
CN1C(=O)Cc2ccc(-c3csc(CC(C#N)NC(=O)[C@H]4N[C@@H]5CC[C@H]4C5)c3)cc21 (stereo partly drawn) [Example 15] | 41.9 nM
CCn1cc(-c2ccc(C[C@@H](C#N)NC(=O)[C@H]3N[C@@H]4CC[C@H]3C4)s2)cn1 [Example 16] | 17.1 nM
N#C[C@H](Cc1ccc(-c2ccc3c(c2)NC(=O)C3)s1)NC(=O)[C@H]1N[C@@H]2CC[C@H]1C2 [Example 17] | 4.2 nM
N#C[C@H](Cc1ccc(-c2cnn(CC3CCOCC3)c2)s1)NC(=O)[C@H]1N[C@@H]2CC[C@H]1C2 [Example 18] | 27 nM
CN1CCC(c2ccc(C[C@@H](C#N)NC(=O)[C@H]3N[C@@H]4CC[C@H]3C4)s2)CC1 [Example 20] | 37.9 nM
CN1C(=O)Cc2ccc(-c3cc(F)c(CC(C#N)NC(=O)[C@H]4N[C@@H]5CC[C@H]4C5)s3)cc21 (stereo partly drawn) [Example 22] | 2.2 nM
CN1CCN(S(=O)(=O)c2ccc(-c3ccc(C[C@@H](C#N)NC(=O)[C@H]4N[C@@H]5CC[C@H]4C5)s3)cc2)CC1 [Example 23] | 2.9 nM
CC1(C)OC(=O)c2cc(-c3ccc(C[C@@H](C#N)NC(=O)[C@H]4N[C@@H]5CC[C@H]4C5)s3)ccc21 [Example 24] | 21.9 nM
CC1(C)OC(=O)c2ccc(-c3ccc(C[C@@H](C#N)NC(=O)[C@H]4N[C@@H]5CC[C@H]4C5)s3)cc21 [Example 25] | 4 nM
CS(=O)(=O)c1cccc(-c2ccc(C[C@@H](C#N)NC(=O)[C@H]3N[C@@H]4CC[C@H]3C4)s2)c1 [Example 26] | 16.7 nM
